From US9504690B2, “Tetracyclic xanthene derivatives and methods of use thereof for the treatment of viral diseases” (Merck Sharp & Dohme Corp., priority 2011, dated 2016)

Experiments:
[1] = test system: HCV replicon 1a WT; test: Cell-based HCV replicon assay, 1a WT; settings: Hepatitis C virus, 72 h; replicon cells, harvested day 3, replicon RNA by real time PCR (Taqman)
Method: (§1) To measure cell-based anti-HCV activity of selected compounds of the present invention, replicon cells were seeded at 5000 cells/well in 96-well collagen I-coated Nunc plates in the presence of the test compound. Various concentrations of test compound, typically in 10 serial 2-fold dilutions, were added to the assay mixture, with the starting concentration ranging from 250 μM to 1 μM. The final concentration of DMSO was 0.5%, fetal bovine serum was 5%, in the assay media. Cells were harvested on day 3 by the addition of 1× cell lysis buffer (Ambion cat #8721). The replicon RNA level was measured using real time PCR (Taqman assay). The amplicon was located in 5B. The PCR primers were: 5B.2F, ATGGACAGGCGCCCTGA (SEQ. ID. NO. 1); 5B.2R, […] (SEQ. ID. NO. 2); the probe sequence was FAM-labeled CACGCCATGCGCTGCGG (SEQ. ID. NO. 3). GAPDH RNA was used as endogenous control and was amplified in the same reaction as NS5B (multiplex PCR) using primers and VIC-labeled probe recommended by the manufacturer (PE Applied Biosystem). The real-time RT-PCR reactions were run on ABI PRISM 7900HT Sequence Detection System using the following program: 48° C. for 30 minutes, 95° C. for 10 minutes, 40 cycles of 95° C. for 15 sec, 60° C. for 1 minutes. The ΔCT values (CT5B-CTGAPDH) were plotted against the concentration of test compound and fitted to the sigmoid dose-response model using XLfit4 (MDL). […] Alternatively, to quantitate the absolute amount of replicon RNA, a standard curve was established by including serially diluted T7 transcripts of replicon RNA in the Taqman assay. All Taqman reagents were from PE Applied Biosystems. Such an assay procedure was described in detail in e.g. Malcolm et al., Antimicrobial Agents and Chemotherapy 50: 1013-1020 (2006).
(§2) HCV replicon assay data was calculated for selected compounds of the present invention using this method and is provided in the table below.

[2] = test system: HCV replicon 1a Y93H; test: Cell-based HCV replicon assay, 1a Y93H; settings: Hepatitis C virus, 72 h, read-out: Replicon EC50 1a Y93H
Method: as §1, §2

[3] = test system: HCV replicon 1b WT; test: Cell-based HCV replicon assay, 1b WT; settings: Hepatitis C virus, 72 h; replicon cells, harvested day 3, replicon RNA by real time PCR (Taqman)
Method: as §1, §2

[4] = test system: HCV replicon 1b Y93H; test: Cell-based HCV replicon assay, 1b Y93H; settings: Hepatitis C virus, 72 h, read-out: Replicon EC50 1b Y93H
Method: as §1, §2

[5] = test system: HCV replicon 2a WT; test: Cell-based HCV replicon assay, 2a WT; settings: Hepatitis C virus, 72 h; replicon cells, harvested day 3, replicon RNA by real time PCR (Taqman)
Method: as §1, §2

[6] = test system: HCV replicon 3a WT; test: Cell-based HCV replicon assay, 3a WT; settings: Hepatitis C virus, 72 h; replicon cells, harvested day 3, replicon RNA by real time PCR (Taqman)
Method: as §1, §2

[7] = test system: HCV replicon 4a WT; test: Cell-based HCV replicon assay, 4a WT; settings: Hepatitis C virus, 72 h; replicon cells, harvested day 3, replicon RNA by real time PCR (Taqman)
Method: as §1, §2

[8] = test system: HCV replicon 2b WT; test: Cell-based HCV replicon assay, 2b WT; settings: Hepatitis C virus, 72 h; replicon cells, harvested day 3, replicon RNA by real time PCR (Taqman)
Method: as §1, §2

SMILES	EC50 [1] [nM]	EC50 [2] [nM]	EC50 [3] [nM]	EC50 [4] [nM]	EC50 [5] [nM]	EC50 [6] [nM]	EC50 [7] [nM]	EC50 [8] [nM]
COC(=O)N[C@H](C(=O)N1CCC[C@H]1c1ncc(-c2ccc3c(c2)Oc2ccc(-c4cnc([C@@H]5CCCN5C(=O)[C@@H](NC(=O)OC)C(C)C)[nH]4)c4ccn-3c24)[nH]1)C(C)C [Compound 1, Methyl [(2S)-1-{(2S)-2-[5-(3-{2-[(2S)-1-{(2S)-2-[(methoxycarbonyl)amino]-3-methyl-butanoyl}pyrrolidin-2-yl]-1H-imidazol-5-yl}pyrrolo[3,2,1-kl]phenoxazin-8-yl)-1H-imidazol-2-yl]pyrrolidin-1-yl}-3-methyl-1-oxobutan-2-yl]carbamate]	0.0107	41.7	0.009	0.56	0.004	0.323	0.044	
COC(=O)N[C@H](C(=O)N1CCC[C@H]1c1ncc(-c2cc3c4c(c2)Oc2ccc(-c5cnc([C@@H]6CCCN6C(=O)[C@@H](NC(=O)OC)C(C)C)[nH]5)cc2N4CCO3)[nH]1)C(C)C [Compound 13, Methyl [(2S)-1-{(2S)-2-[5-(5-{2-[(2S)-1-{(2S)-2-[(methoxycarbonyl)amino]-3-methylbutanoyl}pyrrolidin-2-yl]-1H-imidazol-5-yl}-1,2-dihydro[1,4]oxazino[2,3,4-kl]phenoxazin-10-yl)-1H-imidazol-2-yl]pyrrolidin-1-yl}-3-methyl-1-oxobutan-2-yl]carbamate]	0.002	143	0.005	19	0.01	1.63	0.48	19.3
COC(=O)N[C@H](C(=O)N1CCC[C@H]1c1ncc(-c2ccc3c(c2)Oc2ccc(-c4cnc([C@@H]5CCCN5C(=O)[C@@H](NC(=O)OC)C(C)C)[nH]4)c4occ-3c24)[nH]1)C(C)C [Compound 14, Methyl [(2S)-1-{(2S)-2-[5-(3-{2-[(2S)-1-{(2S)-2-[(methoxycarbonyl)amino]-3-methylbutanoyl}pyrrolidin-2-yl]-1H-imidazol-5-yl}furo[2,3,4-kl]xanthen-8-yl)-1H-imidazol-2-yl]pyrrolidin-1-yl}-3-methyl-1-oxobutan-2-yl]carbamate]	0.011	31.5	0.002	0.278	0.002	0.161	0.056	34.5
COC(=O)N[C@H](C(=O)N1CCC[C@H]1c1ncc(-c2ccc3c(c2)-n2ccc4cc(-c5cnc([C@@H]6CCCN6C(=O)[C@@H](NC(=O)OC)C(C)C)[nH]5)cc(c42)O3)[nH]1)C(C)C [Compound 16]	0.1	50.9	0.009	9.1	0.104	9.61	1.31	9.07
COC(=O)N[C@H](C(=O)N1CCC[C@H]1c1ncc(-c2cc3c4c(c2)Oc2ccc(-c5cnc([C@@H]6CCCN6C(=O)[C@@H](NC(=O)OC)C(C)C)[nH]5)cc2N4CC3)[nH]1)C(C)C [Compound 6, Methyl [(2S)-1-{(2S)-2-[5-(4-{2-[(2S)-1-{(2S)-2-[(methoxycarbonyl)amino]-3-methylbutanoyl}pyrrolidin-2-yl]-1H-imidazol-5-yl}-1,2-dihydropyrrolo[3,2,1-kl]phenoxazin-9-yl)-1H-imidazol-2-yl]pyrrolidin-1-yl}-3-methyl-1-oxobutan-2-yl]carbamate]	0.037	43.5	0.005	0.303	0.011	0.22	0.22	18.9
COC(=O)N[C@H](C(=O)N1CCC[C@H]1c1ncc(-c2ccc3c(c2)Oc2ccc(-c4cnc([C@@H]5CCCN5C(=O)[C@@H](NC(=O)OC)C(C)C)[nH]4)c4c2N3CC4)[nH]1)C(C)C [Compound 17]	0.006	19.5	0.001	19.6	0.007	0.067	0.026	19.6
